What all share (test): NCI tumour cell line growth inhibition, 48 h
Assay [1] relates to ACHN renal.
Assay [2] concerns HT29 colon.
The test system of assay [3] is SN12C renal.
Assay [4] deals with K-562 leukemia.
Assay [5] has as its system SR leukemia.
Assay [6] has as its system HCC-2998 colon.
In assay [7] the test system is MDA-MB-435.
Assay [8] concerns SW-620 colon.
Assay [9] deals with IGROV1 ovarian.
The test system of assay [10] is OVCAR-4 ovarian.

Molecules are shown by their SMILES. Where “and” joins values, the source holds several entries; their conditions need not be identical. Identical values can stand only once.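 A five-concentration, 48-hour dose response in 96-well plates underlies each endpoint, interpolated linearly between surrounding concentrations. Abbreviation: GI50, concentration required for 50% inhibition of growth. TGI: total growth inhibition.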

Turning to `NC(=O)c1c(NC(=O)c2ccc(C(F)(F)F)cc2Cl)sc2c1CCC(=O)C2`, the GI50 was 0.322 µM in assay [1]; 346 nM in [2]; 360 nM in assay [3]; 126 nM in assay [4]; 305 nM in assay [5]; 393 nM in assay [7]. In addition, the values for the GI50 in [8] and in [9] were 176 nM and 0.498 µM, respectively. Besides, the TGI is 1.04 µM in assay [1]; 1.67 µM in assay [2]; 2.04 µM in [3]; over 100 µM in assay [5]; 3.36 µM in assay [6]; 1.79 µM in [7]. Further, the TGI in [8] was determined as 1.36 µM; in assay [9], 2.37 µM.
As to `O=C(Nc1cccc2[nH]c(C(F)(F)F)nc12)c1ccc(Br)cc1F`, the GI50 is 3.08 µM in [1]; 3100 nM in [3]; 3370 nM in [4]; 3510 nM in assay [5]; 4800 nM in assay [6]; 3330 nM in [7]. Moreover, the GI50 in assay [8] is 3380 nM; in assay [9] it was 6.75 µM. Moreover, the TGI stood at 11.1 µM in assay [1]; 10.8 µM in assay [3]; 39.2 µM in [4]; 16.1 µM in assay [5]; 16 µM in [6]; 12.1 µM in assay [7]. In addition, the TGI in assay [8] was 13.2 µM; in assay [9], 32.4 µM.
`COc1cc(/C=C2\CC3C4CC=C5C[C@@H](N6CCCC6)CC[C@]5(C)C4CC[C@]3(C)[C@H]2OC(C)=O)ccc1OCCCn1ccnc1` (stereo not given in full): the GI50 in assay [1] is 0.383 µM; in assay [2], 162 nM; in assay [3] it was 1240 nM; in [4], 119 nM; in assay [6], 178 nM; in assay [7], 912 nM. Moreover, the figures for the GI50 in [8] and in assay [9] were 232 nM and 8.12 µM, respectively. Further, the TGI in [1] was 1.09 µM; in assay [2], over 50 µM; in assay [3], 9.77 µM; in assay [4] it was 0.36 µM; in assay [6] it was 0.568 µM; in assay [7], 1.68 µM. For the same molecule, the TGI in assay [8] was 1.21 µM; in [9], over 50 µM.
Consider `Cc1ncc2c(n1)CCC1=C2OS(=O)(=O)CC1N(C)C` (stereo not given), for which the TGI in [10], in assay [1], in [2], in assay [3], in [4] and in [5] was over 100 µM each time. In addition, the TGI in assay [7], in assay [8] and in [9] was over 100 µM each time.
In the case of `COc1ccc(-c2cc(-c3ccco3)c(C#N)c(=O)n2C2OC(COC(C)=O)C(OC(C)=O)C(OC(C)=O)C2OC(C)=O)cc1` (stereo not given), the TGI in assay [10] was over 100 µM; in assay [1], over 100 µM; in assay [2], over 100 µM; in [3] it was > 100 µM and 55.2 µM; in [4] it was over 100 µM; in assay [5], over 100 µM. For the same molecule, the TGI in [6] was over 100 µM; in assay [8], over 100 µM; in assay [9], > 100 µM and 94.4 µM. Besides, the GI50 in [1] was > 100 µM and 31.1 µM; in assay [2], > 100000 nM and 28600 nM; in [3] it was > 100000 nM and 18900 nM; in assay [4], 48100 nM and 8840 nM; in [9] it was > 100 µM and 12.9 µM.
For `COc1cc2c(c(OC)c1OC)[C@@H]1CCCCC[C@@H]1CCC2=O`, the TGI is over 100 µM in [10]; over 100 µM in [1]; over 100 µM in assay [2]; over 100 µM in assay [3]; over 72.5 µM in assay [4]; over 59.2 µM in [5]. Besides, the TGI in [6], in assay [8] and in assay [9] was over 100 µM throughout.
Regarding `COc1cc(Br)c(/C=N/N=C(\N)NO)cc1OC`, the TGI was over 100 µM in [10]; 50.6 µM in assay [1]; 86.3 µM in [2]; 83.2 µM in assay [3]; 47.3 µM in assay [4]; over 100 µM in [5]. The TGI was 26.3 µM in assay [6], over 100 µM in assay [8] and over 100 µM in [9].
Regarding `COc1cc(C(C)c2cc3c(cc2OCCCCCOc2cc4c(cc2C(C)c2cc(OC)c(OC)c(OC)c2)OCO4)OCO3)cc(OC)c1OC` (stereo not given), the TGI in [10], in [1], in [2], in assay [3], in assay [4] and in assay [5] was over 100 µM throughout. Besides, the TGI in assay [6], in [8] and in [9] was over 100 µM each time.
Consider `O=S(=O)(c1ccccc1)C1(C2(S(=O)(=O)c3ccccc3)CCN=N2)CCN=N1` (stereo not given), for which the TGI in [10], in [1], in assay [2], in assay [3], in assay [4] and in [5] was over 100 µM in each case. Besides, the TGI in assay [6], in assay [8] and in assay [9] was over 100 µM in each case.
Consider `CCOC(=O)CCC(NC(=O)c1ccc(Oc2nc3cc(N)cc(N)c3nc2-c2ccccc2)cc1)C(=O)OCC` (stereo not given), for which the GI50 in [10] was 35.6 µM; in [1], 28.5 µM; in [7], 30200 nM; in assay [8], 29500 nM; in [9], 18.2 µM. The TGI in assay [10] was over 100 µM; in assay [1], over 100 µM; in assay [7] it was over 100 µM; in assay [8], over 100 µM; in assay [9], 78.7 µM.
As to `Cc1nc2ccccc2c(/C=C/c2ccc(F)cc2)c1C(=O)/C=C/c1ccccc1`, the GI50 in assay [10] was 3.66 µM; in assay [1] it was 1.98 µM; in assay [2] it was 2810 nM; in assay [3] it was 2250 nM; in [4], 2440 nM; in [6] it was 1760 nM. Besides, the GI50 in assay [7] was 2940 nM; in assay [8], 2900 nM; in assay [9], 1.71 µM. In addition, the TGI in [10] was over 100 µM; in assay [1], 4.65 µM; in assay [2], over 100 µM; in [3], 6.07 µM; in [4], 8.24 µM; in assay [6], 3.32 µM. Further, the TGI is 12.2 µM in assay [7], over 100 µM in assay [8] and 6.15 µM in assay [9].

These data come from PubChem BioAssay (NCI).
